Reference: patent EP4755890A1, “OXO-TRICYCLIC DERIVATIVE AND PHARMACEUTICAL USE THEREOF” (Haisco Pharmaceutical Group Co., Ltd., priority 2023, dated 2025)

Assays:
[1] = molecular target: T1, CYP1A2 (Homo sapiens, UniProt P05177); assay: CYP450 enzyme activity inhibition assay, CYP1A2; assay type: in vitro ADME
T1 construct: co-incubated with human liver microsomes; from tissue; host or cells: human liver microsomes
T1 sequence (P05177 1-516): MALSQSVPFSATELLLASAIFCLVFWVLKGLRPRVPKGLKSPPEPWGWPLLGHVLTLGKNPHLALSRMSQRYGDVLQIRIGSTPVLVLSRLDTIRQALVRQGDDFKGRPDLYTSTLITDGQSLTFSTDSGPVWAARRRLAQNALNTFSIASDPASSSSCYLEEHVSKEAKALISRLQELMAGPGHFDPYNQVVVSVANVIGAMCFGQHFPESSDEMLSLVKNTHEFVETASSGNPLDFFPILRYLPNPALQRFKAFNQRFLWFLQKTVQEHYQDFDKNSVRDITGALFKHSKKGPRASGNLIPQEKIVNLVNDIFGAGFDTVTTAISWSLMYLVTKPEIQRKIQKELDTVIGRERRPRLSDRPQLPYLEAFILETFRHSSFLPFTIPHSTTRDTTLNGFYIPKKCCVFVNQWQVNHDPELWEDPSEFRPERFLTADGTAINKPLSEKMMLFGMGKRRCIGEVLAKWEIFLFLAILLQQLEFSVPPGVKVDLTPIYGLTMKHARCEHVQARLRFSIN
Description: The purpose of this study was to evaluate the effects of the test compounds on the activities of five isoenzymes (CYP1A2, CYP2C9, CYP2C19, CYP2D6, and CYP3A4) of human liver microsomal cytochrome P450 (CYP) using an in vitro testing system. The specific probe substrates for each CYP450 isoenzyme were co-incubated with human liver microsomes and the test compounds at different concentrations, and reduced nicotinamide adenine dinucleotide phosphate (NADPH) was added to initiate the reaction. After the reactions were completed, the samples were treated, and liquid chromatography-tandem mass spectrometry (LC-MS/MS) was used to quantitatively detect metabolites produced by the specific substrates. The changes in CYP enzyme activities were determined, and the IC50 values were calculated to evaluate the inhibitory potential of the test compounds against each CYP enzyme subtype.

[2] = molecular target: T2, hERG potassium channel (Homo sapiens, UniProt Q12809); assay: hERG potassium channel activity assay (manual whole-cell patch clamp); assay type: cell-based
T2 construct: expressed in transfected cells
Excerpt: Experimental platform: Manual electrophysiological patch-clamp system
Cell line: Chinese hamster ovary (CHO) cell line stably expressing hERG potassium channel
Experimental method: In Chinese Hamster Ovary (CHO) cells stably expressing hERG potassium channel, whole-cell patch-clamp technique was used to record hERG potassium channel current at room temperature. The glass microelectrodes were pulled from glass electrode blanks (BF150-86-10, Sutter) by a glass microelectrode puller. The tip resistance of the microelectrodes after being filled with intrapipette solution was about 2-5 MΩ. The glass microelectrodes were connected to the patch-clamp amplifier by inserting them into an amplifier probe. The clamping voltage and data recording were controlled and recorded by the pClamp 10 software through a computer, with a sampling frequency of 10 kHz and a filtering frequency of 2 kHz. […]
Compound IC50 was calculated using GraphPad Prism 5 software by fitting according to the following equation: Y = Bottom + (Top−Bottom)/(1+10^(∧)((LogIC50−X)*HillSlope)) [formula] where X is the Log value of the test compound concentration, Y is the inhibition percentage at the corresponding concentration, and Bottom and Top are the minimum and maximum inhibition percentage, respectively.

[3] = tested on: HT-29 cells; assay: HT-29 cell proliferation inhibition assay (CellTiter-Glo); assay type: cell-based; details: Homo sapiens, 96 h, 4 days, read-out: Inhibitory activity against HT-29 cell proliferation IC50
Description: The culture conditions for HT-29 cells were as follows: DMEM + 10% FBS + 1% penicillin-streptomycin, and the cells were cultured in an incubator with 5% CO2 at 37°C. On the first day, the HT-29 cells in the exponential growth phase were collected and plated in 96-well cell culture plates at a density of 1000 cells/well (180 µL/well). The plates were cultured overnight in an incubator with 5% CO2 at 37°C. T0 wells were plated simultaneously during the plating process. The next day, 20 µL of compounds at different concentrations were added to each well (nine compound concentration gradients, one DMSO well, and one blank well; each compound concentration was plated in triplicate), and the final concentration of DMSO in each well was 0.1%. The plates were cultured in an incubator with 5% CO2 at 37°C for 4 days. On the same day of compound addition, the T0 plate was detected using the CellTiter-Glo Kit, and the detected value was recorded as RLU0. After the culture was completed, 100 µL of detection solution (Cell Viability Assay, Promega) was added to each well. The plates were incubated at room temperature for 10 minutes with slow shaking. The chemiluminescence reading was read using a BMG microplate reader (PHERAstar FSX). The results were processed according to Formula (4) to calculate the proliferation inhibition rate of compounds at each concentration. Curve fitting was performed via a four-parameter logistic model using GraphPad Prism software, and the GI50 value (the concentration of the compound when the proliferation inhibition rate was 50%) was calculated. In the formula, RLUcompound is the readout of the drug-treated group, RLUcontrol is the average value of the compound vehicle control group, and RLUBlank is the average value of the blank control group. [formula]

T2 sequence (Q12809 whole entry): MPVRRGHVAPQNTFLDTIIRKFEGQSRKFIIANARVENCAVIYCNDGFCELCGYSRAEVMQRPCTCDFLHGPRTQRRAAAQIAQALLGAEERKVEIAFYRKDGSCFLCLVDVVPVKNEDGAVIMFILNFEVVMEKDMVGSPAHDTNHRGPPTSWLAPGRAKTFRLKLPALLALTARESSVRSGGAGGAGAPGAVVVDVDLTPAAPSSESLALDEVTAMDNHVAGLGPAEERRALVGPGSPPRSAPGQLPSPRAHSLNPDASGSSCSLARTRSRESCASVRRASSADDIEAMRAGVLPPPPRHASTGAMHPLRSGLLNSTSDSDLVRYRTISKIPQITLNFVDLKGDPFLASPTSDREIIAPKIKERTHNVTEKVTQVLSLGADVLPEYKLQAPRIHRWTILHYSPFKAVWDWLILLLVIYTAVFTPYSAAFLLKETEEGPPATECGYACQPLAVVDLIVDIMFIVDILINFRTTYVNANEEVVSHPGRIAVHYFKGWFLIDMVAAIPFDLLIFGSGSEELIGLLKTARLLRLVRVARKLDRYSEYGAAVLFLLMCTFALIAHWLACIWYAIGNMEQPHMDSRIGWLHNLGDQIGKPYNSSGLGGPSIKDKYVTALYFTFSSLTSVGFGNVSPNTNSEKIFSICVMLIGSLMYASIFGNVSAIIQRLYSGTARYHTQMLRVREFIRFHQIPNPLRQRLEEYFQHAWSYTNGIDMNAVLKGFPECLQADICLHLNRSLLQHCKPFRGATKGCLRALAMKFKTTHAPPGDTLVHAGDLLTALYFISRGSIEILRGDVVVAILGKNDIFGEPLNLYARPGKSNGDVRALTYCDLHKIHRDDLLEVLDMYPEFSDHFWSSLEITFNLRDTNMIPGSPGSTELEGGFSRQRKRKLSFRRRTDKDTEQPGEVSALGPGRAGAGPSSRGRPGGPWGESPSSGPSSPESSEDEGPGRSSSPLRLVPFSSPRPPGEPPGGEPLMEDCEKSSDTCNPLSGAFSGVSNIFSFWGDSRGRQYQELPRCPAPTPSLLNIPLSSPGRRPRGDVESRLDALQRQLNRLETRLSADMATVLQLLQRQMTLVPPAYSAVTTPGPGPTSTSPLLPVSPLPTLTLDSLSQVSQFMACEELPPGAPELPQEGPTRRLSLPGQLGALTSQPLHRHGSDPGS

SMILES | IC50 [1] [µM] | IC50 [2] [µM] | IC50 [3] [µM]
Cc1ncnc(C(=O)N2CCN(c3c4n(c5nc(C6=CCOCC6)nn5c3=O)C(C(=O)Nc3ccc(C(F)(F)F)cc3Cl)CCC4)C[C@H]2C)c1O (single isomer, unassigned) [Compound 8-B] | > 30 | > 40 | –
Cc1ncnc(C(=O)N2CCN(c3c4n(c5nc(C6=CCOCC6)nn5c3=O)[C@@H](C(=O)Nc3ccc(C(F)(F)F)cc3Cl)CCC4)CC2)c1O [Compound 1-B] | > 30 | > 40 | ≥ 10
Cc1ncnc(C(=O)N2[C@@H](C)CN(c3c4n(c5nc(C6=CCOCC6)nn5c3=O)[C@@H](C(=O)Nc3ccc(C(F)(F)F)cc3Cl)CCC4)C[C@@H]2C)c1O [Compound 20-A] | > 30 | – | ≥ 10
